Measured values as given in paper PMC9851200, “Multiparameter phenotypic screening for endogenous TFEB and TFE3 translocation identifies novel chemical series modulating lysosome function” (Autophagy, 2022).

Assays:
Format in all cases: binding
[1] = target: T1, kinases (KINOMEscan panel) (Homo sapiens, UniProt O75385); conditions: NEW KINOMEscan
T1 sequence (O75385 1-1050): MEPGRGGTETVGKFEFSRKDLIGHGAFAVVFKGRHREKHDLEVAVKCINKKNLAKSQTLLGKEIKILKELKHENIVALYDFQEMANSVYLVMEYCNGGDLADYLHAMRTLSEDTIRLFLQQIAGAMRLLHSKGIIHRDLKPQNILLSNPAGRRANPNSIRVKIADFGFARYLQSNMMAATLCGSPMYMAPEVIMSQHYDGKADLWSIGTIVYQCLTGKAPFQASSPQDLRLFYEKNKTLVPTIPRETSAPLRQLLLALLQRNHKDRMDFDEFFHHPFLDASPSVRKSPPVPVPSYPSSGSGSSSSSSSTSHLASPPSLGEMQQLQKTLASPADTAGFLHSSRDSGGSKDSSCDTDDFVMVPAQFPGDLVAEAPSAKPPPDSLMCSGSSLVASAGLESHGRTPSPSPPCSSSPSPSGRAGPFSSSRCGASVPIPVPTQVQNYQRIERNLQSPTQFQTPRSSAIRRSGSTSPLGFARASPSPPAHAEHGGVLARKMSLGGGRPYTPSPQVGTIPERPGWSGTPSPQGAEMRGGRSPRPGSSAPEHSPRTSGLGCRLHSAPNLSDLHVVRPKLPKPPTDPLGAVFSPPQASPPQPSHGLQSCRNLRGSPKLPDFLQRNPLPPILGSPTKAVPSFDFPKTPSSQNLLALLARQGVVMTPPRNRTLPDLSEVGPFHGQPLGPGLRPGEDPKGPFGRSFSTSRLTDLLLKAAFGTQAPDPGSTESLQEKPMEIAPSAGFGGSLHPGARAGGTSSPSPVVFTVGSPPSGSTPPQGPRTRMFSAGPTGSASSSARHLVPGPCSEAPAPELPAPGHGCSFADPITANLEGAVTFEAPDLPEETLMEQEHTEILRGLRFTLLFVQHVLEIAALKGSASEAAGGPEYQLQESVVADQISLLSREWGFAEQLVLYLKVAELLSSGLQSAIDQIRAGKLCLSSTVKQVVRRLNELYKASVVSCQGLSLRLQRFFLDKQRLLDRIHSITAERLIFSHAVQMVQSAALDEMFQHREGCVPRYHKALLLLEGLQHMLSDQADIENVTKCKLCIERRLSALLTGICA

[2] = target: kinases (KINOMEscan panel) (Homo sapiens, UniProt P00533); conditions: kinase EGFR; NEW KINOMEscan
[3] = target: kinases (KINOMEscan panel) (Homo sapiens, UniProt P22607); conditions: FGFR3; NEW KINOMEscan
Sequence of kinases (KINOMEscan panel) (Homo sapiens, UniProt P22607) (P22607 23-806): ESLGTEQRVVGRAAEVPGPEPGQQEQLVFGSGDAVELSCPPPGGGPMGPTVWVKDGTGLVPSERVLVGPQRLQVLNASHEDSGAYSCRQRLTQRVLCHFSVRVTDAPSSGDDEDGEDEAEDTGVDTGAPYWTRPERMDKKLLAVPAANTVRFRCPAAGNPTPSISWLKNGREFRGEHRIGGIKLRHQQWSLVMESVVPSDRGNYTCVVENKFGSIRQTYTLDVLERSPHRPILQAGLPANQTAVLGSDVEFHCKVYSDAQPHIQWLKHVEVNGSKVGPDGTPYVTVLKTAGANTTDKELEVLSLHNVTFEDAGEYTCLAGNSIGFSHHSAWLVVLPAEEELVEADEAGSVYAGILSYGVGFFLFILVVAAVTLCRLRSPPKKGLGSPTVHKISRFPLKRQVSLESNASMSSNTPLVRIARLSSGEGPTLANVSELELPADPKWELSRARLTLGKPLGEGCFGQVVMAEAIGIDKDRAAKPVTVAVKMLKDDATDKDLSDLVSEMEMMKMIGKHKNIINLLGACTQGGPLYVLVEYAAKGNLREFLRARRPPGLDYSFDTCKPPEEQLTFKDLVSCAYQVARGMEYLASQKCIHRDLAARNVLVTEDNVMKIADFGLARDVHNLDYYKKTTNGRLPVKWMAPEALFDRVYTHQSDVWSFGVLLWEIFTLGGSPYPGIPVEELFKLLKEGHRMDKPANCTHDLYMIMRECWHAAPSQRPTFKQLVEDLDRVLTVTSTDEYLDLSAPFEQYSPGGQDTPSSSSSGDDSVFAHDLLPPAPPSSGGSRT

[4] = target: kinases (KINOMEscan panel) (Homo sapiens, UniProt P53671); conditions: LIMK2; NEW KINOMEscan
[5] = target: T2, kinases (KINOMEscan panel) (Homo sapiens, UniProt P57078); conditions: RIPK4; NEW KINOMEscan
T2 sequence (P57078 1-832): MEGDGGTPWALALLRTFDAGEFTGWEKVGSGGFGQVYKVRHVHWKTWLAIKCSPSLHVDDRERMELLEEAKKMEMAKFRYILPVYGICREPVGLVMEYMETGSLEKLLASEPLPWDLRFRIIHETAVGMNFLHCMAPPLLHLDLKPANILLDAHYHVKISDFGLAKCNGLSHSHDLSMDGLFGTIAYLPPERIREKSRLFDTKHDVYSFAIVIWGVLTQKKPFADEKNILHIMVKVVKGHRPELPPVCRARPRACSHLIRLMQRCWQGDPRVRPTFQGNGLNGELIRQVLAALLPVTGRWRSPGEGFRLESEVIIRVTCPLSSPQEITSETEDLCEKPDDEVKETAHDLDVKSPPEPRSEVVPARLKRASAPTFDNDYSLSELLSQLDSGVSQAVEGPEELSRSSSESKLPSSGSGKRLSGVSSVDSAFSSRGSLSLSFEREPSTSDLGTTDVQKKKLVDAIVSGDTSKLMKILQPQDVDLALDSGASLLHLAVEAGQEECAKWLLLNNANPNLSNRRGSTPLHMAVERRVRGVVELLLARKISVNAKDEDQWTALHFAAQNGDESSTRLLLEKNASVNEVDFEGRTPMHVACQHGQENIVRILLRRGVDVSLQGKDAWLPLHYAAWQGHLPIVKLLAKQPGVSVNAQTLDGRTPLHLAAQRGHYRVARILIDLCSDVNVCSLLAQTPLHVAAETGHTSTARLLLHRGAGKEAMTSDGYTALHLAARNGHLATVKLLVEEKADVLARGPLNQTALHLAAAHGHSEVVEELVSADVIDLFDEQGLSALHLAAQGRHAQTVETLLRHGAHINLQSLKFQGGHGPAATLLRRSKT

[6] = target: kinases (KINOMEscan panel) (Homo sapiens, UniProt Q00537); conditions: kinase CDK17; NEW KINOMEscan
Sequence of kinases (KINOMEscan panel) (Homo sapiens, UniProt Q00537) (Q00537 whole entry): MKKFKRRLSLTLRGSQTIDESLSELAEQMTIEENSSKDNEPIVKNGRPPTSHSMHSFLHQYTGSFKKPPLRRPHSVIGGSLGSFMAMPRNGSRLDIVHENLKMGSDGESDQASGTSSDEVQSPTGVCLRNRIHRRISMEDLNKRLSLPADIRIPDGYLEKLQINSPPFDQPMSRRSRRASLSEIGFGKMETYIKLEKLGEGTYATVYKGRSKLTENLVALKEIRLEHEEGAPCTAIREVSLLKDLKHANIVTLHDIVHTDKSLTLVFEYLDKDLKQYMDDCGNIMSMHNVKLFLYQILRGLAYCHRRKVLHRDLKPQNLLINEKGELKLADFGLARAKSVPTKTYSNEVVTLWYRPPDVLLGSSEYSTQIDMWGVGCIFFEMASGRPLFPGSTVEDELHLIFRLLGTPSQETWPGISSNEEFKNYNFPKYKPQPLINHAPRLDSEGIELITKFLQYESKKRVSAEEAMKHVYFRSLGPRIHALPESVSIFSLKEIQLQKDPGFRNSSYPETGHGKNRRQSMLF

[7] = target: kinases (KINOMEscan panel) (Homo sapiens, UniProt Q15303); conditions: kinase ERBB4; NEW KINOMEscan
Sequence of kinases (KINOMEscan panel) (Homo sapiens, UniProt Q15303) (Q15303 26-1308): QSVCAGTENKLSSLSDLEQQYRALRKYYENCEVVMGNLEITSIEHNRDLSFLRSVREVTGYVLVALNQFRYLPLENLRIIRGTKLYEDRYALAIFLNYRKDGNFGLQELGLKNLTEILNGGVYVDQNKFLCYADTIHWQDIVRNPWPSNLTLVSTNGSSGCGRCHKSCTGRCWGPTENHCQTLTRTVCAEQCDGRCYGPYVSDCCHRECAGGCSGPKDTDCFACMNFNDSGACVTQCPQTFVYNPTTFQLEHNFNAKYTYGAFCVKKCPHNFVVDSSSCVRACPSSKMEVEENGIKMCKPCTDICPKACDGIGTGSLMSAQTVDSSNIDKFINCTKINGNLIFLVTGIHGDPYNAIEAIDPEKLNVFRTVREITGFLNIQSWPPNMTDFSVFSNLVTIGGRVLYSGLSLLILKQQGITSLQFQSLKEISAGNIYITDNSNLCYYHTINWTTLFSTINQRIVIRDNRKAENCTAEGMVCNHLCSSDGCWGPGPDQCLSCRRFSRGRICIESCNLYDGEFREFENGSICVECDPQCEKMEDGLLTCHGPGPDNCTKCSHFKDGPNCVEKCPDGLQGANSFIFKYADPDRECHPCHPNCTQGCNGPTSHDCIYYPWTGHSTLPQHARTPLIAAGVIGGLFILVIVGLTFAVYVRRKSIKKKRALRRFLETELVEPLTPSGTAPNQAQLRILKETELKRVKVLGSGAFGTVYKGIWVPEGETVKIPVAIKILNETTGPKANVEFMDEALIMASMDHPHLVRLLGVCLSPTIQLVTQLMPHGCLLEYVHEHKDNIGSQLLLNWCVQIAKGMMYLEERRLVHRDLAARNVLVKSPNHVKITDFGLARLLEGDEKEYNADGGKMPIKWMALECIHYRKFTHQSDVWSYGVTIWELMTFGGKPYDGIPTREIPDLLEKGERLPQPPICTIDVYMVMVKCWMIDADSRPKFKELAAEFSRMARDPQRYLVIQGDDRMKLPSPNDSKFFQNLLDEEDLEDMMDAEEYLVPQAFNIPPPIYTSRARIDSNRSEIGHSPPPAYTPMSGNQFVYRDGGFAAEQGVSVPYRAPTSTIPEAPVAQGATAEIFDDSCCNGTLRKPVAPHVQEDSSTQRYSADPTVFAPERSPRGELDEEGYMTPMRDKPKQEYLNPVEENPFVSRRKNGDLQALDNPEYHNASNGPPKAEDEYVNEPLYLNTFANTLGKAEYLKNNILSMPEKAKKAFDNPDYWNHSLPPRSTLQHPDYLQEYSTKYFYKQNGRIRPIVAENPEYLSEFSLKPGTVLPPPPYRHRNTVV

[8] = target: kinases (KINOMEscan panel) (Homo sapiens, UniProt Q5S007); conditions: NEW KINOMEscan
Sequence of kinases (KINOMEscan panel) (Homo sapiens, UniProt Q5S007) (Q5S007 whole entry): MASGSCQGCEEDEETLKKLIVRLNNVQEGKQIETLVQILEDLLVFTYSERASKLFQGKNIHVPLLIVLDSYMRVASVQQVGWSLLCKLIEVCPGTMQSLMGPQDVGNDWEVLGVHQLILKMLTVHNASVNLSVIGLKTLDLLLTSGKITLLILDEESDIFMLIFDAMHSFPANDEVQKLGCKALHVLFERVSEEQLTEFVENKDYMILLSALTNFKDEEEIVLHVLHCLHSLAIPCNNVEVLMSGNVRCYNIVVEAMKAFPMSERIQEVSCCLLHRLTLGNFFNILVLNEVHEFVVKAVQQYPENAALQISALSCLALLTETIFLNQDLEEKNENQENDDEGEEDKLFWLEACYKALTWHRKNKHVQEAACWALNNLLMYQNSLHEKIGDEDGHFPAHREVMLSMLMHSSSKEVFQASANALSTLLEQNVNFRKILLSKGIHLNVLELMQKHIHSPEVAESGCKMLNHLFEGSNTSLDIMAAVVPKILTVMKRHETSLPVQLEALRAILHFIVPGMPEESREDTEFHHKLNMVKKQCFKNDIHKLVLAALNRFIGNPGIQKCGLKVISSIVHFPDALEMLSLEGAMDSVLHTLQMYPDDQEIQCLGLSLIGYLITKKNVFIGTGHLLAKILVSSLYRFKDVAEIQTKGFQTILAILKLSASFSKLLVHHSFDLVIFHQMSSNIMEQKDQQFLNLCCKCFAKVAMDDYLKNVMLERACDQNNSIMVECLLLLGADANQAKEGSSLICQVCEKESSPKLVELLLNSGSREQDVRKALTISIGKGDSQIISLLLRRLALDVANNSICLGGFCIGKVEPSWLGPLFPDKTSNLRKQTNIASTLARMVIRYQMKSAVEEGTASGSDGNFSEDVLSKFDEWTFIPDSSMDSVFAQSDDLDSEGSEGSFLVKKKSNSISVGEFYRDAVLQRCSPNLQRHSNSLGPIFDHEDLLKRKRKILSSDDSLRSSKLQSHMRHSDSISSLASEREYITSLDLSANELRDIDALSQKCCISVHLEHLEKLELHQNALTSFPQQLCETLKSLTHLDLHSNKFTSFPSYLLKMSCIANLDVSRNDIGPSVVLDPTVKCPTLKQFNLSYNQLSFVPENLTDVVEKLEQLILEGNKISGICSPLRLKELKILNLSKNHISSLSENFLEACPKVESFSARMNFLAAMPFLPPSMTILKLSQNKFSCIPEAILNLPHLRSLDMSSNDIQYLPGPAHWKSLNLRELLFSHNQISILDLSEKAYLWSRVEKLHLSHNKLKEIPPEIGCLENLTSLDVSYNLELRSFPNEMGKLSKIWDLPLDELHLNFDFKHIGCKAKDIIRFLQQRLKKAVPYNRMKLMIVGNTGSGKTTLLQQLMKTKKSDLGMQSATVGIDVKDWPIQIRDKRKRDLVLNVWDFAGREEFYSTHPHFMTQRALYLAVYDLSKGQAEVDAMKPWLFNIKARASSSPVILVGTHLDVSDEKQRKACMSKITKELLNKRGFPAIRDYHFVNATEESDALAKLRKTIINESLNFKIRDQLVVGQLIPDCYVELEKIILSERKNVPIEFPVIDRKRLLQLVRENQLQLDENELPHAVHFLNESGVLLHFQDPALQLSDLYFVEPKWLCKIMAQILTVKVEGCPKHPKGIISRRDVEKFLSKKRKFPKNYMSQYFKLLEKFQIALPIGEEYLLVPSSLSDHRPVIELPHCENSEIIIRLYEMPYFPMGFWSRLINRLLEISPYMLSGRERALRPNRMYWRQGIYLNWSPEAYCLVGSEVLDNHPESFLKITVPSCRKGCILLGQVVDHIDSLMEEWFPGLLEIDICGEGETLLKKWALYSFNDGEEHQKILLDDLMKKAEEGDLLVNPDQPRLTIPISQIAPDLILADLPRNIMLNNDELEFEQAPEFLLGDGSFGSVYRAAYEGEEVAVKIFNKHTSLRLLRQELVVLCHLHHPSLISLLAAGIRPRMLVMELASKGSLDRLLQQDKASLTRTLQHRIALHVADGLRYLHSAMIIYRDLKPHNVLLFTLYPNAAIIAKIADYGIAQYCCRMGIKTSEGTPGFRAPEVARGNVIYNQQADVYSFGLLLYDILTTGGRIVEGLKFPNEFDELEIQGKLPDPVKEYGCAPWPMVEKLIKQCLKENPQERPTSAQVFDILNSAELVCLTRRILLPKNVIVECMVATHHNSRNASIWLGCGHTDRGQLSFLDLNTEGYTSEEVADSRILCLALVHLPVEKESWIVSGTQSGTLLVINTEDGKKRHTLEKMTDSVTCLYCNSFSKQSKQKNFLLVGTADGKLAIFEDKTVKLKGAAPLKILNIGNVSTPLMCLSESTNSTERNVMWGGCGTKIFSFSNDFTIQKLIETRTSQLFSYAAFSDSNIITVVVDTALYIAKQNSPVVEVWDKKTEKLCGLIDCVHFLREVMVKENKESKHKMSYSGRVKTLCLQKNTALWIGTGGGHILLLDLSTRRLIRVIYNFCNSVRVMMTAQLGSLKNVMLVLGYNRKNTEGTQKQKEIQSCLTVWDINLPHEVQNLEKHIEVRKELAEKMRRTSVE

[9] = target: kinases (KINOMEscan panel) (Homo sapiens, UniProt Q9H3Y6); conditions: NEW KINOMEscan
[10] = target: T3, kinases (KINOMEscan panel) (Homo sapiens, UniProt Q9UQB9); conditions: AURKC; NEW KINOMEscan
T3 sequence (Q9UQB9 1-309): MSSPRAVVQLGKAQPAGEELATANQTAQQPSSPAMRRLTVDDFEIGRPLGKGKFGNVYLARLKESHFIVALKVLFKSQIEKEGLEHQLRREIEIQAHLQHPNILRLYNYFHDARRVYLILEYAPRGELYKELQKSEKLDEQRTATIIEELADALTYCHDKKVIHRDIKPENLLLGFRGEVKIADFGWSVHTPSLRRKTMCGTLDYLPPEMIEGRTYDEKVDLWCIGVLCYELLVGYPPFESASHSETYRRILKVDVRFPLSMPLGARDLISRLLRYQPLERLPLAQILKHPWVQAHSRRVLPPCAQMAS

| Compound | KINOMEscan ULK1 [1] | KINOMEscan EGFR [2] | KINOMEscan FGFR3 [3] | KINOMEscan LIMK2 [4] | KINOMEscan RIPK4 [5] | KINOMEscan CDK17 [6] | KINOMEscan ERBB4 [7] | KINOMEscan LRRK2 [8] | KINOMEscan SRMS [9] | KINOMEscan AURKC [10] |
| --- | --- | --- | --- | --- | --- | --- | --- | --- | --- | --- |
| Cc1cccc(-c2nc(Nc3ccc4nn(C)cc4c3)c3ccccc3n2)n1 [NK167] | 8 | 0 | 0 | 3 | 0 | 1 | 0 | 21 | 21 | 0 |
| Cc1cccc(-c2nc(N(C)c3ccc4ncsc4c3)c3ccccc3n2)n1 [NK-161] | 18 | 1 | 1 | 9 | 0 | 0 | 0 | 27 | 26 | 0 |
